Experimental findings from paper PMC10082830, “A tailored tetravalent peptide displays dual functions to inhibit amyloid β production and aggregation” (Communications Biology, 2023) are described below.

One data set relates to 7WD10 cells. Briefly: Incorporation of biotinylated tetravalent peptides into 7WD10 cells, confocal microscopy. The format is cell-based, Chinese Hamster. Particulars: biotinylated peptide 50 µM, 37 °C, 1 h, Alexa Fluor 488-streptavidin. As for the experimental part:
Supplementary Fig. 10: Efficient incorporation of […] into cells.
7WD10 cells were cultured at 37° C for 1 h in the presence of biotinylated LME-tet or PME-tet
(50 µM). Biotinylated peptide was detected using Alexa Fluor 488-conjugated streptavidin.
Fluorescence images were obtained using confocal laser scanning microscopy to assess the
incorporation of tetravalent peptides into cells. The scale bars indicate 10 µm.

The next data set deals with T1, Aβ42 (Homo sapiens, UniProt P05067).
T1 construct: purchased Peptide Institute
T1 sequence (P05067 672-713 limits assumed): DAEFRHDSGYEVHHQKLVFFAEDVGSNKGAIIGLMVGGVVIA
Put plainly: ELISA binding between Aβ and LME peptides. Particulars: Aβ42, n = 3, read-out: apparent Kd. As for the experimental part: (§1) The indicated amounts of LME-tet (8.3 µM) or LME-mono (33 µM) were applied onto each well of a regular 96-well ELISA plate (Thermo Fisher Scientific) and incubated overnight for 24 h. After blocking, the plate was incubated with various concentrations of Aβ1–28, Aβ40, or Aβ42 (Peptide Institute) for 2 h at room temperature. Bound Aβ was detected using mouse monoclonal anti-human Aβ antibody 82E1 (Immuno-Biological Laboratories Co., Ltd.) and HRP-conjugated horse anti-mouse IgG antibody (Cell Signaling Technology).
In general terms: In an ELISA, binding on a coated surface is turned into a signal by an enzyme label.

A further data set has as its target T2, Aβ40 (Homo sapiens, UniProt P05067).
T2 construct: purchased Peptide Institute
Put plainly: ELISA binding between Aβ and LME peptides. Particulars: Aβ40, n = 4, read-out: apparent Kd. As for the experimental part:
as §1

Data set [1] relates to β-cleavage of St6gal1 in 7WD10-NotchΔE-St6gal1 cells. Put plainly: β-Secretase assay in cells (St6gal1 cleavage). Particulars: 48 h, culture medium, western blot; β-secretase inhibitor II 10 µM. The format is cell-based, Chinese Hamster. As for the experimental part:
(§2) 7WD10 cells were treated with vehicle control or LME-tet at the indicated concentrations for 48 h. Cell lysates were analyzed by western blot. b Effect of LME-tet on production of extracellular sAPPα and sAPPβ Schematic showing α- and β-cleavage sites (top). 7WD10 cells were treated as in (a) and sAPPα and sAPPβ in culture medium were analyzed by western blot (bottom left and right panels, respectively). a, b APP and sAPPα were detected using anti-APP antibody 6E10, and sAPPβ was detected using anti-sAPPβ antibody. Data are graphed as the percentage of the control value, showing the mean ± SE; n = 3–4. Significance vs. vehicle was calculated by ANOVA, followed by one-sided Dunnett’s test; *P < 0.05, **P < 0.01, ***P < 0.001. c Effect of LME-tet on β-cleavage of β-galactoside α-2,6- sialyltransferase 1 (St6gal1) and γ-cleavage of NotchΔE. 7WD10-NotchΔE-St6gal1 cells were treated with LME-tet at the indicated concentrations and β-secretase inhibitor II (βi; 10 µM) for 48 h; culture medium was analyzed by western blot using anti-St6gal1 antibody (left panel). 7WD10-NotchΔE cells were treated with LME-tet at the indicated concentrations and γ-secretase inhibitor DAPT (γi; 10 µM) for 48 h; cell lysates were analyzed by western blot using anti-Myc antibody (right panel). […] Aβ33-FLAG (left) and Aβ (right) were measured by western blot using anti-Aβ antibody 82E1. […]
(In general: A western blot detects proteins with antibodies after separation by electrophoresis.)

The test system of data set [2] is γ-cleavage of NotchΔE in 7WD10-NotchΔE cells. Briefly: γ-Secretase assay in cells (NotchΔE cleavage). The format is cell-based, Chinese Hamster. As to conditions: 48 h, cell lysates, western blot with anti-Myc antibody; DAPT 10 µM. On the procedure: as §2

Bridge positions count the residues as written; N and C are the ends. Square brackets hold non-standard residues; d marks the D form. Peptide text beside a SMILES is read from it. I, II: the chains in the order shown. * marks the point of attachment. Cbz = O=C(OCc1ccccc1)*; Ahx = NCCCCCC(=O)O

T2 sequence (P05067 672-711 limits assumed): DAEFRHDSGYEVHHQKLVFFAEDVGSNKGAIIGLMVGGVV

Regarding `CSCC[C@H](NC(=O)[C@H](CCCNC(=N)N)NC(=O)[C@H](CC(C)C)NC(=O)[C@H](CCCCN)NC(=O)[C@@H]1CCCN1)C(=O)N[C@@H](CCCCN)C(=O)N[C@@H](CCC(=O)O)C(=O)NCCCCCC(=O)NCCCC[C@H](NC(=O)CCCCCNC(=O)[C@H](CCC(=O)O)NC(=O)[C@H](CCCCN)NC(=O)[C@H](CCSC)NC(=O)[C@H](CCCNC(=N)N)NC(=O)[C@H](CC(C)C)NC(=O)[C@H](CCCCN)NC(=O)[C@@H]1CCCN1)C(=O)NCCCC[C@H](NC(=O)[C@H](CCCCNC(=O)CCCCCNC(=O)[C@H](CCC(=O)O)NC(=O)[C@H](CCCCN)NC(=O)[C@H](CCSC)NC(=O)[C@H](CCCNC(=N)N)NC(=O)[C@H](CC(C)C)NC(=O)[C@H](CCCCN)NC(=O)[C@@H]1CCCN1)NC(=O)CCCCCNC(=O)[C@H](CCC(=O)O)NC(=O)[C@H](CCCCN)NC(=O)[C@H](CCSC)NC(=O)[C@H](CCCNC(=N)N)NC(=O)[C@H](CC(C)C)NC(=O)[C@H](CCCCN)NC(=O)[C@@H]1CCCN1)C(N)=O` [LME-tet] (I: H-PKLRMKE[Ahx]KK-NH2 / II: H-PKLRMKE[Ahx]K / III: H-PKLRMKE[Ahx] / IV: H-PKLRMKE[Ahx]; amide I:9-IV:C, I:10-II:C, II:9-III:C), the “efficiency of incorporation into cells” value in the data set on 7WD10 cells was “much higher efficacy than PME-tet”. The Kd on Aβ42 was 200 nM; on Aβ40, 2700 nM.

Turning to `CC(C)C[C@@H](C=O)NC(=O)[C@H](CC(C)C)NC(=O)[C@@H](NC(=O)OCc1ccccc1)C(C)C` [β-secretase inhibitor II] (Cbz-Val-Leu-Leu-aldehyde), in data set [1], the “production of extracellular St6gal1 fragment” value is on record as “completely suppressed”. On to `C[C@H](NC(=O)Cc1cc(F)cc(F)c1)C(=O)N[C@H](C(=O)OC(C)(C)C)c1ccccc1` [DAPT], for which, in data set [2], the “production of NICD” value was “efficiently inhibits”.
